Assay [1] addresses T1, BKαβ1 (Rattus norvegicus, UniProt Q62976).
T1 construct: expressed in transfected cells; host or cells: HEK293
Nature of the assay: Whole-cell current recording (whole-cell patch clamp), HEK293 constantly expressing rat BKα+β1. Type of assay: cell-based. The conditions noted are these: pCa 6.5, depolarization −60 mV to +10 mV. Here is the method: According to the whole-cell patch clamp technique, whole-cell currents were recorded on HEK293 cell, in which rat BKα+β1 subunits were constantly expressed. All the experiments were carried out at 22-24° C.
Pipette solution (mM) 140 KCl, 4 MgCl2, 5 ATP, 10 HEPES, 5 EGTA (the pCa was adjusted to 6.5 by adding a suitable amount of CaCl2 to stabilize the pCa). The pH was adjusted to 7.2 with KOH.
Extracellular fluid (mM) 137 NaCl, 5.9 KCl, 2.2 CaCl2, 1.2 MgCl2, 14 Glucose, 10 HEPES. The pH was adjusted to 7.4 with NaOH.
(§1) Since the test compounds were highly aliphatic, and hard to dissolve in water, they were dissolved by DMSO and preserved as 30 mM stock solutions. On administration, final concentration in the DMSO solutions were made at most 0.03%. Incidentally, DMSO was confirmed not to have any influence on BK currents, when its concentration is 0.3% or less.
The whole-cell currents were recorded with the cells in which BK(α+β1) channels were constantly expressed, by the whole-cell patch clamp technique. The Ca^2+ concentration in the intracellular fluid was fixed at pCa 6.5 with Ca^2+-EGTA buffer. The pulse depolarizing from the resting potential −60 mV to +10 mV, was added for 150 mseconds, and the elicited currents were observed. By the depolarizing stimulus, moderately activated outward currents were observed, which are characteristic of BK(α+β1) channel (control in FIG. 4B). After establishing the whole cell, the recording was started at a point where stable current measurements were obtained for 20 minutes. […] After that, by washout, the current went back almost to the level prior to application of the test compounds (FIG. 4A). As a result of a statistical analysis based on the recordings of the 4 examples, the currents were activated by 1.90±0.21 times at concentration of 100 nM, 2.54±0.14 times at 300 nM, and 6.37±0.91 times at 1 μm, by this activating effect.
For orientation: The patch-clamp technique gives a direct electrical read-out from membranes.

In assay [2] the target is T1, BKαβ1. Nature of the assay: Single-channel recording (inside-out patch clamp), HEK293 constantly expressing rat BKα+β1. The format is cell-based. Particulars: pCa 7.0, +40 mV. On the procedure: According to the inside-out patch clamp technique, a single channel current was recorded on HEK293, in which rat BKα+β1 subunits were constantly expressed. All the experiments were carried out at 22-24° C.
Intracellular fluid (mM) 140 KCl, 1.2 MgCl2, 14 Glucose, 5 EGTA (the pCa was adjusted to 7 by adding a suitable amount of CaCl2 to stabilize the pCa). The pH was adjusted to 7.2 with NaOH.
Extracellular fluid (mM) 140 KCl, 4 MgCl2, 5 ATP, 10 HEPES, 0.05 EGTA. The pH was adjusted to 7.2 with KOH.
as §1
In order to further confirm this point, a single channel current recording was carried out. The single channel current was recorded with respect to the cells in which BK(α+β1) channels were constantly expressed, by the inside-out patch clamp technique. The intracellular fluid (the fluid contacting the inner side of the cell membrane) was fixed at pCa 7.0. […] From these histograms, channel opening probability was calculated to show relation between the concentration and effect as shown in FIG. 5C.

The target of assay [3] is T2, BKα (Rattus norvegicus, UniProt Q62976).
T2 construct: expressed in transfected cells; host or cells: HEK293
T2 sequence (Q62976 whole entry): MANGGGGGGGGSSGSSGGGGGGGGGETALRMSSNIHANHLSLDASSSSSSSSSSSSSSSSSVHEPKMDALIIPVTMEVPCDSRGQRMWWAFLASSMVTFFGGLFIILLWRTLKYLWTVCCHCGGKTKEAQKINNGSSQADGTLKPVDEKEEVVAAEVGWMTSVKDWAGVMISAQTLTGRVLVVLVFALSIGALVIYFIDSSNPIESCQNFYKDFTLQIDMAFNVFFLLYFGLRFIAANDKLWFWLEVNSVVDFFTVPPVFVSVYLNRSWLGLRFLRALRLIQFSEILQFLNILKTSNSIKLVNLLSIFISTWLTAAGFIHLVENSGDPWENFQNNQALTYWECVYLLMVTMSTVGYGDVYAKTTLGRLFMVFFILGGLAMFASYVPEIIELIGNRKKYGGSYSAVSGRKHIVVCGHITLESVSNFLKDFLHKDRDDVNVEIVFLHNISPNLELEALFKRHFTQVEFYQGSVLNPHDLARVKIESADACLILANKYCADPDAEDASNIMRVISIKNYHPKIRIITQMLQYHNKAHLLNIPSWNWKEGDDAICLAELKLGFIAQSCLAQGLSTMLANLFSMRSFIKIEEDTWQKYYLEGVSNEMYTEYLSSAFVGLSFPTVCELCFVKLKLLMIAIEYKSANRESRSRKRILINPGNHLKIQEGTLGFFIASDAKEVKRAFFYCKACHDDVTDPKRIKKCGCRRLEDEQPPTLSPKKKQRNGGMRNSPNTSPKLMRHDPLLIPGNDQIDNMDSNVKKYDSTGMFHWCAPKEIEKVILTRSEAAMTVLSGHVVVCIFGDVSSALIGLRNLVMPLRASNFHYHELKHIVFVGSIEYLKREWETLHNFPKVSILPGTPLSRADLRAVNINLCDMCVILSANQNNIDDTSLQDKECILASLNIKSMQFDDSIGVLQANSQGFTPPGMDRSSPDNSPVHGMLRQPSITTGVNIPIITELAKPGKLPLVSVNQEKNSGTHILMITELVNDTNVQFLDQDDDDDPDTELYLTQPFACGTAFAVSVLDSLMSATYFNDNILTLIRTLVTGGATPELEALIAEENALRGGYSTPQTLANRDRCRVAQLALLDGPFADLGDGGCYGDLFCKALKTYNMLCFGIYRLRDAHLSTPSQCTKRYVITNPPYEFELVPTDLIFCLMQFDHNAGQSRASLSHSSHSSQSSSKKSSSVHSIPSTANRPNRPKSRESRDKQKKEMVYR
Nature of the assay: Membrane current recording by whole cell voltage-clamp, HEK293 cell expressing BKα channels. Type of assay: cell-based. From the text: (§2) Calcium-activated potassium channel (hereinafter abbreviated as “BK channel” in Examples) functions with two kinds of proteins α (BKα) and β (BKβ) subunits being arranged in tetramers. BKα consists a main part of a channel and BKβ is an activity regulating factor. […] In accordance with a method of Ahring, et al. (Ahring P. K., et al., FEBS Lett., 415, pp. 67-70, 1997), cDNAs of BKα and BKβ1 genes derived from rat uterus smooth muscle (GenBank accession numbers; U55995 and AF020712) were introduced into HEK293 cells by using calcium phosphate coprecipitation transfection techniques, to constantly overexpress BKα or BKαβ.
(b) Membrane Current Recording by Whole Cell Voltage-Clamp Technique
Membrane current of the whole cell by opening of BKα channels was recorded by Whole cell voltage-clamp technique. This technique is frequently employed to analyze the functions shown by the ion channels expressed in numbers on a cell membrane as a whole, and is a well established technique (Hamil, O. P. the above mentioned reference).

The target in assay [4] is T1, BKαβ1. Nature of the assay: Concentration-dependent block of macroscopic currents by ChTX in HEKBKαβ1, in the absence and presence of pimaric acid. The format is cell-based. The source says: The outward currents elicited by depolarization from −60 mV in 10 mV steps were enhanced at potentials positive to −20 mV. The current at +40 mV was increased from 1214±153 to 2527±448 pA (n=5, p<0.05). […] The currents at +40 mV in the presence of 10 μm pimaric acid was reduced from 2527±448 pA to 499±90 pA (p<0.01 versus before the application of and in the presence of 10 μm pimaric acid). […] The normalized data were well fitted with the Hill equation modified for the concentration-response relationship. […] The relationship in the presence of 10 μm pimaric acid was almost identical with that in its absence.

The target of assay [5] is T2, BKα. Briefly: Single channel current recording by inside-out patch clamp, BKα expressed on HEK293 cells. Type of assay: cell-based.
Description: as §2
(a) Single Channel Current Recording by Inside-Out Patch Clamp Technique
By using Inside-out patch clamp technique, fragments of cell membrane containing the channels were isolated, and by artificially controlling an environment of inside of the cell membrane, opening or closing of a single channel can be directly observed. This is a fully established method not only for functional analysis of the channel, but also for testing quantitative effects of the channel agonists (Hamil, O. P., et al., Pflgers Archiv., 391, pp. 85-100, 1981).
Under this condition, action and effect of pimaric acid for BKα was measured.
In Current Amplitude, 0 pA means a closing state. […] In FIG. 3, a relation between a concentration of pimaric acid and an effect of BK channel activation is shown under this condition. By addition of pimaric acid at concentration of 3 μm or more, a significant increase in channel opening probability was confirmed.

For assay [6], the target named is T1, BKαβ1. Briefly: BK channel currents in single HEK293 cell expressing BK(α+β1) channels (HEKBKαβ1) under whole-cell voltage clamp. Type of assay: cell-based. Particulars: 1 to 10 μm; pCa 6.5. From the text: (§3) Effects of test compounds on BK channel currents were examined in single HEK293 cell expressing BK(α+β1) channels (hereinafter referred to as HEKBKαβ1) under whole-cell voltage clamp. The Ca^2+ concentration in the pipette solution was fixed at pCa 6.5 using a Ca^2+-EGTA buffer. Depolarization from −60 mV to +30 mV induced outward currents in both native HEK293 and HEKBKαβ1, but the current density was much higher in the latter (the current density at the peak: 11.0±1.8 and 95.2±20.9 pA/pF, n=5 and 6, respectively, p<0.05). […] This enhancement of outward current by pimaric acid could be removed completely by washout. Effects of other test compounds were also examined in this manner. The peak amplitude of outward current at +40 mV in the presence of 1, 3, and 10 μm resin acids was measured relative to the value taken just before the application (FIG. 6B).

A further assay relates to native HEK293. Briefly: Outward currents in native HEK293 under whole-cell voltage clamp. The format is cell-based, human. The conditions noted are these: 1 to 10 μm; pCa 6.5.
Description: as §3

T1 sequence (Q62976 whole entry): as above
T1 sequence (P97678 whole entry partner): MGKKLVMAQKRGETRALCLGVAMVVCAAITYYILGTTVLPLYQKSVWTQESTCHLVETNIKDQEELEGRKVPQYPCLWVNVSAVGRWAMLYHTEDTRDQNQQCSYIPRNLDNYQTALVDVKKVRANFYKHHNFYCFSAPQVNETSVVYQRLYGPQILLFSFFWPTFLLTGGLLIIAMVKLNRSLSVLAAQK

`CC(C)c1c(Cl)cc2c(c1Cl)CC[C@H]1[C@](C)(C(=O)O)CCC[C@]21C` [dichlorodehydroabietic acid]: the “activation of whole-cell current” value is reported as 1.90±0.21 times on BKαβ1 [1] (100 nM), 2.54±0.14 times on BKαβ1 [1] (300 nM) and 6.37±0.91 times on BKαβ1 [1] (1 μm). In addition, the “concentration at which channel activation was observed” value at BKαβ1 [2] (applied to inner side of cell membrane) was at least 100 nM. For the same compound, the “relation between concentration and channel opening probability” value on BKαβ1 [2] is listed as “concentration-dependent”.

With `CC[N+](CC)(CC)CC` [tetraethylammonium, reference compound], the “inhibition of the action of pimaric acid on BKα current” value on BKα [3] (1 mM tetraethylammonium) was “completely inhibited”.

In the case of charybdotoxin [ChTX], on BKαβ1 [4] (100 nM ChTX in the absence of pimaric acid, before 1233±226 pA), the “current amplitude at +40 mV after ChTX” value is on record as 205±46 pA. Moreover, at BKαβ1 [4] (100 nM ChTX in the presence of 10 μm pimaric acid, before 2527±448 pA), the “outward current at +40 mV after ChTX” value was found to be 499±90 pA. Besides, on BKαβ1 [4] (absence of pimaric acid), the “C (constant; native K+ currents insensitive to ChTX)” value came to 0.077±0.0226 and the “nH (Hill coefficient)” value came out at 0.847±0.034. On BKαβ1 [4] (presence of 10 μm pimaric acid), the “C (constant; native K+ currents insensitive to ChTX)” value came out at 0.0965±0.0388 and the “nH (Hill coefficient)” value is 0.982±0.161.

`C=C[C@@]1(C)C=C2CC[C@@H]3[C@](C)(CCC[C@@]3(C)C(=O)O)[C@H]2CC1` [pimaric acid]: the “increase of opening probability” value at BKα [5] (1 μM, Ca of inner side 0.3 μm, patch membrane potential +40 mV) is reported as “increased by three times”. The “time of an opening state (histograms of 30 s current recordings)” value on BKα [5] (1 μm or 10 μm, +40 mV, Ca 0.1 μM) is given as “increased time of an opening state”. In addition, the “concentration giving a significant increase in channel opening probability” value at BKα [5] (+40 mV, Ca 0.1 μM) is recorded as at least 3 μm. The “channel activity (BKα single channel)” value at BKα [5] (added to solution of inner side of cell membrane at 10 μm or less, +40 mV, Ca 0.1 μM) is on record as “significantly increased”. In addition, at BKα [5] (comparison with known compound), the “BK channel opening effect relative to NS-1619” value is at least 10 times. The “BK channel opening effect relative to maxikdiol described in the reference” value at BKα [5] (comparison with literature value) was “at least three times or more”. Moreover, the “outward currents in HEKBKαβ1” value on BKαβ1 [6] is “increased outward currents in a dose-dependent fashion”. The “increase of BKα current” value at BKα [3] (1 μm added to extracellular fluid, +60 mV) was “about 50%”. On BKαβ1 [4] (10 μm pimaric acid), the “effect on the binding of ChTX to BK channels” value is given as “does not affect the binding of ChTX to BK channels”. Besides, the “outward current at +40 mV” value at BKαβ1 [4] (10 μm pimaric acid, control 1214±153 pA) amounted to 2527±448 pA. For the same compound, at BKαβ1 [1] (1 μm), the “activation of whole-cell current” value was determined as 1.92±0.24 times. Also, in the assay on native HEK293, the “outward currents in native HEK293” value is on record as “did not change”.

These data come from patent publication US7495127B2, “Potassium channel opener” (Mitsubishi Tanabe Pharma Corporation, priority 2001, dated 2009).
